Measured values reported in patent US12404241B2 (Celgene Corporation, priority 2018, dated 2025).
Values belong to the molecule of their own block, whether it stands above or below them.

Biological target: T1, AR (Homo sapiens, UniProt P10275)
T1 construct: endogenous in cells; host or cells: VCaP cells
T1 sequence (P10275 1-920): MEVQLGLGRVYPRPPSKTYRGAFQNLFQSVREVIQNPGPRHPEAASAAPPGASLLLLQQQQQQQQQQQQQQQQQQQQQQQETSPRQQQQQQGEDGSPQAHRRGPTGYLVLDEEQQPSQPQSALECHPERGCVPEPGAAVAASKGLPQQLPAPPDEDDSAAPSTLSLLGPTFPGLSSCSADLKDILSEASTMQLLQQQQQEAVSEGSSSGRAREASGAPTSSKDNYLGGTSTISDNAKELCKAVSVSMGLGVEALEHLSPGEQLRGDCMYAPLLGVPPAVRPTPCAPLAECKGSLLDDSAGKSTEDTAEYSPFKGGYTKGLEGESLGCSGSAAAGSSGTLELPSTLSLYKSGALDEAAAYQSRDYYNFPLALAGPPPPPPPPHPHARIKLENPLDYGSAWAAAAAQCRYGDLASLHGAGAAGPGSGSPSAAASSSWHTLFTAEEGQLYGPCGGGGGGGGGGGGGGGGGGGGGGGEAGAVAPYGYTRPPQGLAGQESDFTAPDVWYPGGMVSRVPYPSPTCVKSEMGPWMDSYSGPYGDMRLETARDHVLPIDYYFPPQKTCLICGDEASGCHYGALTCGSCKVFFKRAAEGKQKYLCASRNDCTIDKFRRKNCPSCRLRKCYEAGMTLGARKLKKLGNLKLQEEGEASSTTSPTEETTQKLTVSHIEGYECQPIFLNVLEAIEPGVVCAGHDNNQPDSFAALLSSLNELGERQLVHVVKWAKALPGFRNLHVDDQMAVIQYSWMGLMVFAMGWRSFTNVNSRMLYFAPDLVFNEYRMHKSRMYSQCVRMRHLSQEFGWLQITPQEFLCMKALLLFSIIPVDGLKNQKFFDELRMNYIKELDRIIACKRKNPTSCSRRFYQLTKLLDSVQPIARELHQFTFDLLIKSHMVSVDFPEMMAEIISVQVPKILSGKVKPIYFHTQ
Assay: VCAP AR Degradation Assay
Format: cell-based
Details: for Y (AR degradation efficiency, % of DMSO control): class symbols *; for DC50: class symbols A-C, read-out: DC50
Outline: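 AR protein in lysates quantified by sandwich ELISA after 24 h exposure of VCaP cells at 37 °C to 10 concentrations (1:3 steps, 5 μM top, final). Four-parameter logistic fit of percent-of-DMSO levels gave DC50 (50% degradation), EC50 and minimal AR level Y.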

Compound: CC1(C)C(=O)N(c2ccc(C#N)c(C(F)(F)F)c2)C(=S)N1c1ccc(OCCN2CCN(CC(=O)Nc3cc(C#N)cc(NC4CCC(=O)NC4=O)c3)CC2)c(F)c1 (centres unmarked) [Example 65, 2-(4-(2-(4-(3-(4-cyano-3-(trifluoromethyl)phenyl)-5,5-dimethyl-4-oxo-2-thioxoimidazolidin-1-yl)-2-fluorophenoxy)ethyl)piperazin-1-yl)-N-(3-cyano-5-(2,6-dioxopiperidin-3-ylamino)phenyl)acetamide]
Y (AR degradation efficiency, % of DMSO control): ** (25%<Y<=35%)
DC50: 100 to 500 nM

Compound: C[C@@H]1CN(CCOc2ccc(N3C(=S)N(c4ccc(C#N)c(C(F)(F)F)c4)C(=O)C3(C)C)cc2F)CCN1CC(=O)Nc1cccc(NC2CCC(=O)NC2=O)c1 (stereo partly drawn) [Example 277, 2-((R)-4-(2-(4-(3-(4-cyano-3-(trifluoromethyl)phenyl)-5,5-dimethyl-4-oxo-2-thioxoimidazolidin-1-yl)-2-fluorophenoxy)ethyl)-2-methylpiperazin-1-yl)-N-(3-(2,6-dioxopiperidin-3-ylamino)phenyl)acetamide]
Y (AR degradation efficiency, % of DMSO control): *** (35%<Y<50%)
DC50: < 100 nM

Compound: CC1(C)C(=O)N(c2ccc(C#N)c(C(F)(F)F)c2)C(=S)N1c1ccc(OCCN2CCN(CC(=O)Nc3cccc(NC4CCC(=O)NC4=O)c3)[C@H](C(F)(F)F)C2)c(C2CC2)c1 (stereo partly drawn) [Example 245, 2-((S)-4-(2-(4-(3-(4-cyano-3-(trifluoromethyl)phenyl)-5,5-dimethyl-4-oxo-2-thioxoimidazolidin-1-yl)-2-cyclopropylphenoxy)ethyl)-2-(trifluoromethyl)piperazin-1-yl)-N-(3-(2,6-dioxopiperidin-3-ylamino)phenyl)acetamide]
Y (AR degradation efficiency, % of DMSO control): * (0<Y<=25%)
DC50: < 100 nM

Y (AR degradation efficiency, % of DMSO control): * (0<Y<=25%)
DC50: < 100 nM
Compound: CCc1cc(N2C(=S)N(c3cnc(C#N)c(C(F)(F)F)c3)C(=O)C2(C)C)ccc1OCCN1C[C@@H](C)N(CC(=O)Nc2cccc(NC3CCC(=O)NC3=O)c2)[C@@H](C)C1 (stereo partly drawn) [Example 151, 2-((2R,6S)-4-(2-(4-(3-(6-cyano-5-(trifluoromethyl)pyridin-3-yl)-5,5-dimethyl-4-oxo-2-thioxoimidazolidin-1-yl)-2-ethylphenoxy)ethyl)-2,6-dimethylpiperazin-1-yl)-N-(3-(2,6-dioxopiperidin-3-ylamino)phenyl)acetamide]

Y (AR degradation efficiency, % of DMSO control): * (0<Y<=25%)
DC50: < 100 nM
Compound: CC(C)c1cc(N2C(=S)N(c3cnc(C#N)c(C(F)(F)F)c3)C(=O)C23CCC3)ccc1OCCN1C[C@@H](C)N(CC(=O)Nc2cc(F)cc(NC3CCC(=O)NC3=O)c2)[C@@H](C)C1 (stereo partly drawn) [Example 211, 2-((2S,6R)-4-(2-(4-(7-(6-cyano-5-(trifluoromethyl)pyridin-3-yl)-8-oxo-6-thioxo-5,7-diazaspiro[3.4]octan-5-yl)-2-isopropylphenoxy)ethyl)-2,6-dimethylpiperazin-1-yl)-N-(3-(2,6-dioxopiperidin-3-ylamino)-5-fluorophenyl)acetamide]

Compound: C[C@@H]1CN(CCOc2ccc(N3C(=S)N(c4ccc(C#N)c(C(F)(F)F)c4)C(=O)C3(C)C)cc2C(C)(F)F)CCN1CC(=O)Nc1cc(Cl)cc(NC2CCC(=O)NC2=O)c1 (stereo partly drawn) [Example 148, N-(3-chloro-5-(2,6-dioxopiperidin-3-ylamino)phenyl)-2-((R)-4-(2-(4-(3-(4-cyano-3-(trifluoromethyl)phenyl)-5,5-dimethyl-4-oxo-2-thioxoimidazolidin-1-yl)-2-(1,1-difluoroethyl)phenoxy)ethyl)-2-methylpiperazin-1-yl)acetamide]
Y (AR degradation efficiency, % of DMSO control): * (0<Y<=25%)
DC50: < 100 nM

Compound: CC(F)(F)c1cc(N2C(=S)N(c3ccc(C#N)c(C(F)(F)F)c3)C(=O)C2(C)C)ccc1OCCN1CCN(CC(=O)Nc2cccc(NC3CCC(=O)NC3=O)c2)CC1 (centres unmarked) [Example 59, 2-(4-(2-(4-(3-(4-cyano-3-(trifluoromethyl)phenyl)-5,5-dimethyl-4-oxo-2-thioxoimidazolidin-1-yl)-2-(1,1-difluoroethyl)phenoxy)ethyl)piperazin-1-yl)-N-(3-(2,6-dioxopiperidin-3-ylamino)phenyl)acetamide]
Y (AR degradation efficiency, % of DMSO control): * (0<Y<=25%)
DC50: < 100 nM

Compound: Cc1cc(OCCN2C[C@@H](C)N(CC(=O)Nc3cccc(NC4CCC(=O)NC4=O)c3)[C@@H](C)C2)c(C(C)C)cc1N1C(=S)N(c2ccc(C#N)c(C(F)(F)F)c2)C(=O)C1(C)C (stereo partly drawn) [Example 253, 2-((2S,6R)-4-(2-(4-(3-(4-cyano-3-(trifluoromethyl)phenyl)-5,5-dimethyl-4-oxo-2-thioxoimidazolidin-1-yl)-2-isopropyl-5-methylphenoxy)ethyl)-2,6-dimethylpiperazin-1-yl)-N-(3-(2,6-dioxopiperidin-3-ylamino)phenyl)acetamide]
Y (AR degradation efficiency, % of DMSO control): * (0<Y<=25%)
DC50: 100 to 500 nM

Compound: CCc1cc(N2C(=S)N(c3ccc(C#N)c(C(F)(F)F)c3)C(=O)C2(C)C)ccc1OCCN1CCN(CC(=O)Nc2cc(F)cc(NC3CCC(=O)NC3=O)c2)C2(CC2)C1 (centres unmarked) [Example 109, 2-(7-(2-(4-(3-(4-cyano-3-(trifluoromethyl)phenyl)-5,5-dimethyl-4-oxo-2-thioxoimidazolidin-1-yl)-2-ethylphenoxy)ethyl)-4,7-diazaspiro[2.5]octan-4-yl)-N-(3-(2,6-dioxopiperidin-3-ylamino)-5-fluorophenyl)acetamide]
Y (AR degradation efficiency, % of DMSO control): * (0<Y<=25%)
DC50: < 100 nM

Compound: CCc1cc(N2C(=S)N(c3ccc(C#N)c(Cl)c3)C(=O)C2(C)C)ccc1OCCN1C[C@@H](C)N(CC(=O)Nc2cccc(NC3CCC(=O)NC3=O)c2)[C@@H](C)C1 (stereo partly drawn) [Example 291, 2-((2S,6R)-4-(2-(4-(3-(3-chloro-4-cyanophenyl)-5,5-dimethyl-4-oxo-2-thioxoimidazolidin-1-yl)-2-ethylphenoxy)ethyl)-2,6-dimethylpiperazin-1-yl)-N-(3-((2,6-dioxopiperidin-3-yl)amino)phenyl)acetamide]
Y (AR degradation efficiency, % of DMSO control): * (0<Y<=25%)
DC50: < 100 nM

Compound: CCc1cc(N2C(=S)N(c3ccc(C#N)c(C(F)(F)F)c3)C(=O)C2(C)C)ccc1OC[C@@H](C)N1C[C@@H](C)N(CC(=O)Nc2cccc(NC3CCC(=O)NC3=O)c2)[C@@H](C)C1 (single isomer, unassigned) [Example 237]
Y (AR degradation efficiency, % of DMSO control): ** (25%<Y<=35%)
DC50: 100 to 500 nM

Compound: CCc1cc(N2C(=S)N(c3ccc(C#N)c(C(F)(F)F)c3)C(=O)C23CCC3)ccc1OCCN1CCN(CC(=O)Nc2cc(Cl)cc(NC3CCC(=O)NC3=O)c2)[C@H](C)C1 (stereo partly drawn) [Example 103, N-(3-chloro-5-(2,6-dioxopiperidin-3-ylamino)phenyl)-2-((R)-4-(2-(4-(7-(4-cyano-3-(trifluoromethyl)phenyl)-8-oxo-6-thioxo-5,7-diazaspiro[3.4]octan-5-yl)-2-ethylphenoxy)ethyl)-2-methylpiperazin-1-yl)acetamide]
Y (AR degradation efficiency, % of DMSO control): * (0<Y<=25%)
DC50: < 100 nM

Y (AR degradation efficiency, % of DMSO control): ** (25%<Y<=35%)
DC50: 100 to 500 nM
Compound: CCc1cc(N2C(=S)N(c3cnc(C#N)c(C(F)(F)F)c3)C(=O)C2(C)C)ccc1OCCN1C[C@H]2C[C@@H]1CN2CC(=O)Nc1cc(Cl)cc(NC2CCC(=O)NC2=O)c1 (stereo partly drawn) [Example 120, N-(3-chloro-5-(2,6-dioxopiperidin-3-ylamino)phenyl)-2-((1R,4R)-5-(2-(4-(3-(6-cyano-5-(trifluoromethyl)pyridin-3-yl)-5,5-dimethyl-4-oxo-2-thioxoimidazolidin-1-yl)-2-ethylphenoxy)ethyl)-2,5-diazabicyclo[2.2.1]heptan-2-yl)acetamide]

Compound: CCc1cc(N2C(=S)N(c3ccc(C#N)c(C(F)(F)F)c3)C(=O)C2(C)C)ccc1OCCN1CCN(CC(=O)Nc2cccc(NC3CCC(=O)NC3=O)c2)C[C@H]1CO (some centres unmarked) [Example 49]
Y (AR degradation efficiency, % of DMSO control): ** (25%<Y<=35%)
DC50: < 100 nM

Compound: C[C@@H]1CN(CCOc2ccc(N3C(=S)N(c4ccc(C#N)c(Cl)c4)C(=O)C3(C)C)cc2C2CC2)C[C@H](C)N1CC(=O)Nc1cc(Cl)cc(NC2CCC(=O)NC2=O)c1 (stereo partly drawn) [Example 220, 2-((2S,6R)-4-(2-(4-(3-(3-chloro-4-cyanophenyl)-5,5-dimethyl-4-oxo-2-thioxoimidazolidin-1-yl)-2-cyclopropylphenoxy)ethyl)-2,6-dimethylpiperazin-1-yl)-N-(3-chloro-5-(2,6-dioxopiperidin-3-ylamino)phenyl)acetamide]
Y (AR degradation efficiency, % of DMSO control): ** (25%<Y<=35%)
DC50: < 100 nM

Compound: CCc1cc(N2C(=S)N(c3ccc(C#N)c(C(F)(F)F)c3)C(=O)C2(C)C)ccc1OCCN1CCN(CC(=O)Nc2cccc(NC3CCC(=O)NC3=O)c2)C[C@@H]1CO (some centres unmarked) [Example 48]
Y (AR degradation efficiency, % of DMSO control): * (0<Y<=25%)
DC50: < 100 nM
